{"source": "patent US6803501B2", "about": "(Monsanto Technology, LLC, priority 2000, dated 2004)", "assay_in_all_cases": "kinetic characterization of EPSP synthase (Table 4)", "assay_type_in_all_cases": "biochemical", "key": {"[1]": {"target": "T1, P. hybrida EPSPS variant glypR (Pro-Ser) (Petunia hybrida, UniProt P11043, P178S)", "T1 sequence (P11043 73-516 P178S)": "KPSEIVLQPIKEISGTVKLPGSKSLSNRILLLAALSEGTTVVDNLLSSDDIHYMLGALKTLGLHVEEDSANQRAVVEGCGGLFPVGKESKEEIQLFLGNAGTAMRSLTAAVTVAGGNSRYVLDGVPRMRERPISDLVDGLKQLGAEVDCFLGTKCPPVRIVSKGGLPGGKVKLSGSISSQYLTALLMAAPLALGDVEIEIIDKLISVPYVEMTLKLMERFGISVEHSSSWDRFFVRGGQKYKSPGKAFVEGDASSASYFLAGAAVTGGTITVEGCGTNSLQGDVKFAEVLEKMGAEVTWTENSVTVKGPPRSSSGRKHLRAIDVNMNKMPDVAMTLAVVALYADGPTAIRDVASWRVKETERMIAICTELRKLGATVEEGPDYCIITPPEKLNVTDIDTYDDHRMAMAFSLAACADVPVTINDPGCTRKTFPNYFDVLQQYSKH", "procedure": "(§1) Final sample volumes are approximately 0.5 ml."}, "[2]": {"target": "T2, Z. mays EPSPS variant glypR (Thr-Ile, Pro-Ser) (Zea mays, UniProt A0A1D6NVZ6, P168S/T164I)", "T2 sequence (A0A1D6NVZ6 63-506 T164I/P168S limits assumed)": "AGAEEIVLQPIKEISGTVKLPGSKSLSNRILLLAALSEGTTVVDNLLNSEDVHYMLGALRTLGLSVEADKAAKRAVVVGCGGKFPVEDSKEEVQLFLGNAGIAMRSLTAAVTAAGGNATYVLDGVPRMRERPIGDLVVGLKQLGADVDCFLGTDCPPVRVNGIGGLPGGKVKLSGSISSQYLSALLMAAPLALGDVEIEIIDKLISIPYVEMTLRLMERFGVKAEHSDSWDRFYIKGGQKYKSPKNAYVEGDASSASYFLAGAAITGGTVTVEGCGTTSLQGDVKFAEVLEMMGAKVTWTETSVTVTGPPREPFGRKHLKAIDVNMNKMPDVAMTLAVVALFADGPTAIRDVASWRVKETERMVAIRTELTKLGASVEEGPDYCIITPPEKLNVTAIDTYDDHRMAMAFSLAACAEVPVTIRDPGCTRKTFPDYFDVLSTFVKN", "conditions": "read-out: apparent Ki for glyphosate; with respect to PEP, saturating S3P", "procedure": "as §1"}, "[3]": {"target": "T3, Z. mays glypS (wt) EPSPS (Zea mays, glyphosate sensitive, wild type) (Zea mays, UniProt A0A1D6NVZ6)", "T3 sequence (A0A1D6NVZ6 63-506 limits assumed)": "T2 sequence (A0A1D6NVZ6 63-506 T164I/P168S limits assumed) with I102T, S106P", "procedure": "as §1"}, "[4]": {"target": "T4, P. hybrida EPSPS variant glypR (Gly-Ala, Pro-Ser) (Petunia hybrida, UniProt P11043, G173A/P178S)", "T4 sequence (P11043 73-516 G173A/P178S)": "T1 sequence (P11043 73-516 P178S) with G101A", "procedure": "as §1"}, "[5]": {"target": "T5, E. indica glypS EPSPS (Eleusine indica, naturally occurring glyphosate sensitive, wild type) (Eleusine indica, UniProt Q95AK0)", "T5 construct": "plant extract or E. coli SR481 extract", "T5 sequence (Q95AK0 1-445)": "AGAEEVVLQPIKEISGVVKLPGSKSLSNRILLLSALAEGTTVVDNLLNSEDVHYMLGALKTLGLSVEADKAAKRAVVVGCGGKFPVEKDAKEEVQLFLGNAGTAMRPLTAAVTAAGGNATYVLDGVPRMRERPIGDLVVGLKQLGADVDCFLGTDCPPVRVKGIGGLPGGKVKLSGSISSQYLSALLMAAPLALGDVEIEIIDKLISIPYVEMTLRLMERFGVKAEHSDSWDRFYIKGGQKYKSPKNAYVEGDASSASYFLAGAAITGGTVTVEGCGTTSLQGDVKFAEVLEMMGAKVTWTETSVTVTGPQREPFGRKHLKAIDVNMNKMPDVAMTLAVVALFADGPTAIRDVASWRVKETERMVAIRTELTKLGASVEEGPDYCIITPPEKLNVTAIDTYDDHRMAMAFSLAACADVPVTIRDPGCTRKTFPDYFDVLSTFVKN", "procedure": "as §1"}}, "note": "Substitutions are numbered along the chain they refer to. pKi: −log10 of the molar value."}
{"smiles": "O=C(O)CNCP(=O)(O)O", "note": "[glyphosate, N-phosphonomethylglycine]", "values": [{"measurement": "pKi", "setting": "[1]", "result": 5.52}, {"measurement": "pKi", "setting": "[2]", "result": 4.22}, {"measurement": "pKi", "setting": "[3]", "result": 6.70}, {"measurement": "pKi", "setting": "[4]", "result": 2.07}, {"measurement": "pKi", "setting": "[5]", "result": 7.30}]}
